What all share (assay): Yeast 6x EcRE-lacZ β-galactosidase transactivation assay
One test concerns Aa EcR + Aa USPb. It counts as cell-based, Aedes aegypti. The note with it: RH 5992 10 μM, 4 hours, DMSO control 3.000. On the procedure: (§1) Briefly, yeast cells are cultured in 5 mL of YPD liquid medium overnight at 30° C. The cell culture was diluted 1:20 in YPD media and further grown until cell density reached an O.D of 0.6. at OD600. The cells were pelleted by centrifugation and washed with 10 mL of TE+0.1M lithium acetate. Cells are then resuspended in 10 mL TE+0.1M lithium acetate and incubated at 30° C. for 1 hour. Cells are collected and resuspended in 0.5 mL of TE+ 0.1M lithium acetate. Aliquots of cells (50 μL), were incubated for 15 minutes at 30° C. with 1–2 μg plasmid DNA in the presence of 5 μg of denatured salmon sperm DNA as DNA carrier. In the case of co-transformation, the indicated plasmids were added simultaneously. 50% polyethyleneglycol of molecular weight 4000, diluted in TE, was added to a final concentration of 35%. DMSO was added to the transformation solution simultaneously to a final concentration 3%. The samples were mixed well by vortexing and incubated for an additional 30 minutes at 30° C. The cell mixture is then heated for 15 minutes at 42° C. Cells were then collected and plated onto appropriate yeast selective media. Transformants of 4 plasmids are selected on the complete media without tryptophan, uracil, leucine and histidine.
(§2) The yeast cells grown overnight in selective liquid media at 30° C. were diluted in prewarmed liquid selective media to 0.1 at OD600 (ODculture). 100 μl of the cell culture was spiked to each well of a.96-well microtiter plate. Ligand (2 μl diluted in DMSO) was added to each well giving a final concentration of DMSO of 2%. As a control, 2 μl of DMSO were also added to additional test wells. The final concentration of the tested compounds in the media is 10 μM. The cells were incubated in the presence of ligand in a shaker at 30° C. After 4 hours of incubation, 100 μl of 2× “Z” Sarcosine-ONPG buffer (120 mM Na2HPO4, 80 mM NaH2PO4, 20 mM KCl, 2 mM MgSO4, 100 mM beta-mercaptoethanol (Sigma), pH 7.0, 0.4% lauroyl sarcosine (Sigma), 4 mg/mL ONPG (Diagnostic Chemicals limited) was added to each well and the plate was further incubated at 37° C. The 2× “Z” Sarcosine-ONPG buffer is freshly prepared or stored at −20° C. prior to use. After incubation at 37° C. for 1 hour. The reaction was stopped by adding 100 μL of quenching solution 0.5 M Na2CO3 and OD405 (ODreaction) and beta-galactosidase activity was measured in a micro plate reader (Biotek) at a wave length of 405–450 nanometers. The effect of copper on enhancement of the transactivation response mediated by the ligands tested was studied by adding CuSO4 to the media to a final concentration of 10 μM.
(§3) Using the transformation method described above, yeast were co-transformed with a reporter gene as shown in FIG. 2 and the expression vector encoding the full-length Aedes aegypti ecdysone receptor, Aa EcR (FIG. 7A) in the presence or absence of the Aa EcR heterodimer partner, Aa USP (a or b form, FIGS. 8A and 8B respectively). Transformed cells were incubated with DMSO alone as a control, or with a proprietary ecdysone receptor ligand (Rohm & Haas tebufenozide[RH5992]) at final concentration 10 μM for 4 hours. The samples were then assayed for β-galactosidase activity as described above. […] As the N-terminal portion of the AaEcR receptor is reported to play a role in ligand independent transactivation, an expression vector containing an N-terminal deletion in the Aa EcR was constructed (see FIG. 7B) and assessed in the β-galactosidase assays described above. […] Restoration of ligand dependent transactivation was observed only when the AaΔN EcR, AaUSP (a or b forms) and co-activator GRIP1 were coexpressed. As in the Drosophila system, the data obtained indicate that the efficiency of ligand-dependent transactivation of the ecdysone receptor in mosquito A. aegypti is dependent on the both heterodimer formation of EcR/USP and also upon proper interaction with co-activator GRIP1.

In another test the test system is Aa USPa. In kind it is cell-based, Aedes aegypti. The note with it: RH 5992 10 μM, 4 hours, DMSO control 0.210. On the procedure: as §1, §2, §3
For the next test, the system named is Aa USPb. It counts as cell-based, Aedes aegypti. The note with it: RH 5992 10 μM, 4 hours, DMSO control 0.196. On the procedure:
as §1, §2, §3

Test [1] relates to Aa ΔA/B EcR + Aa ΔA/B USP + GRIP1. In kind it is cell-based, Aedes aegypti. As to conditions: RH 5992 10 μM, 4 hours, DMSO control 0.194. On the procedure: as §1, §2, §3
Test [2] deals with Aa ΔA/B EcR + Aa ΔA/B USP. In kind it is cell-based, Aedes aegypti. The note with it: RH 5992 10 μM, 4 hours, DMSO control 0.187. On the procedure: as §1, §2, §3
The test system of the next test is Aa ΔA/B EcR + Aa USPa. In kind it is cell-based, Aedes aegypti. The note with it: 4 hours. On the procedure:
as §1, §2, §3

The test system of a further test is Aa EcR + Aa USPa. In kind it is cell-based, Aedes aegypti. The note with it: RH 5992 10 μM, 4 hours, DMSO control 2.300. On the procedure: as §1, §2, §3
Test [3] has as its target T1, Aa ΔA/B EcR + RXRα + GRIP1 (Aedes aegypti, UniProt P49880).
T1 construct: ubiquitin (human, 76 aa) (N, cleaved yes); expressed in transfected cells
It counts as cell-based, Aedes aegypti; human. The note with it: RH 5992 10 μM, 4 hours, DMSO control 0.544. On the procedure:
The human RXR α (Genbank accession number X52773), mouse RXR β (Genbank accession number X66224) or mouse RXR γ (Genebank accession number X66225) subtypes were expressed in yeast-E. coli multicopy 2μ expression plasmids under regulation of CUP1 promoter with the LEU2 selective marker (1).
Briefly, yeast cells are cultured in 5 mL of YPD liquid medium overnight at 30° C. The cell culture was diluted 1:20 in YPD media and further grown until cell density reached an O.D of 0.6. at OD600. The cells were pelleted by centrifugation and washed with 10 mL of TE+0.1M lithium acetate. Cells are then resuspended in 10 mL TE+0.1M lithium acetate and incubated at 30° C. for 1 hour. Cells are collected and resuspended in 0.5 mL of TE+ 0.1M lithium acetate. […]
Using the transformation method described above, yeast were co-transformed with a reporter gene as shown in FIG. 2 and the expression vector encoding the full-length Aedes aegypti ecdysone receptor, Aa EcR (FIG. 7A) in the presence or absence of the Aa EcR heterodimer partner, Aa USP (a or b form, FIGS. 8A and 8B respectively). […] As the N-terminal portion of the AaEcR receptor is reported to play a role in ligand independent transactivation, an expression vector containing an N-terminal deletion in the Aa EcR was constructed (see FIG. 7B) and assessed in the β-galactosidase assays described above. […]

T1 sequence (P49880 with tags, fused parts or gaps): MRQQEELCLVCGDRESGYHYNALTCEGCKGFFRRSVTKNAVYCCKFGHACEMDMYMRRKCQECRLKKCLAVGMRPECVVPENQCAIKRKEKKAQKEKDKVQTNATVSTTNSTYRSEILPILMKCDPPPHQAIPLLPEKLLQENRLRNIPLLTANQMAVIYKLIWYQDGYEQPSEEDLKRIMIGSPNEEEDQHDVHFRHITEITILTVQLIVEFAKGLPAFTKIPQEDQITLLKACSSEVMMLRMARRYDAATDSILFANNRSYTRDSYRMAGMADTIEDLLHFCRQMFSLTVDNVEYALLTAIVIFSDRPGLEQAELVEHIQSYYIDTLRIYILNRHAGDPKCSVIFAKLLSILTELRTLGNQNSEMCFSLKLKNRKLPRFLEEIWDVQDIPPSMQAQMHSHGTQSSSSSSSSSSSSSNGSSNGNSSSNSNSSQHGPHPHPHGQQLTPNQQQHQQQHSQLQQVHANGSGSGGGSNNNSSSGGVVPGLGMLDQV
T1 sequence (P19793 whole entry partner): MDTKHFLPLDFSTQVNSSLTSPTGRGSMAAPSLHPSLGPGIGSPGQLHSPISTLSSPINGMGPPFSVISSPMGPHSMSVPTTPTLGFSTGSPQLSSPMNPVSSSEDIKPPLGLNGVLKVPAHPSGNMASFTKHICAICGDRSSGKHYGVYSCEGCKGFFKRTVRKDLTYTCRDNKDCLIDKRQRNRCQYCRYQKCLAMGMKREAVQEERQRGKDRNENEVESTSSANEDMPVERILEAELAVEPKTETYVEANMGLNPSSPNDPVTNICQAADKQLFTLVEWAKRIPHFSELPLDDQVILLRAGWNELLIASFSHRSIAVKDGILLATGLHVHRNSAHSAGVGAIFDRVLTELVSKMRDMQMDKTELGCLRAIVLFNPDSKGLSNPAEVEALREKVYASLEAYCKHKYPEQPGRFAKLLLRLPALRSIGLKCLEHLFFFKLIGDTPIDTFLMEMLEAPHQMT

With `CCc1ccc(C(=O)NN(C(=O)c2cc(C)cc(C)c2)C(C)(C)C)cc1` [RH 5992, tebufenozide], the β-galactosidase activity in the test with Aa EcR + Aa USPb worked out at 2.700; with Aa USPa, 0.223; in the test with Aa USPb, 0.210; in test [1], 1.370; in test [2], 0.196; in the test with Aa ΔA/B EcR + Aa USPa (RH 5992 10 μM, yeast, Aa ΔA/B EcR + Aa USPa, DMSO control 0.194), 0.209. Further, the β-galactosidase activity in the test on Aa EcR + Aa USPa was found to be 2.453; in test [3], 2.032. For the same compound, in the test with Aa ΔA/B EcR + Aa USPa (10 μM, Aa EcR with N-terminal deletion, Aa USP present or absent, no GRIP1), the “transactivation of the reporter gene (in words)” value is “incapable of transactivating the reporter gene”.
